Laboratory results published in patent US20050043271A1, “Heparin-containing ophthalmic agent” (priority 2001, published 2005).

Key:
[1] = tested on: allergically caused conjunctival inflammation; conditions: high-dosage, topical application to the eye, animals; cited from earlier work
mast cells = conditions: without direct antihistamine effect; inhalative and intravenous application; cited from earlier work
[2] = tear film tearing time (fluorescein, slit lamp); type: in vivo; conditions: concentration of 0.1% by weight to 0.3% by weight
Source text: A further diagnostic parameter in regard to diagnosis of the “dry eye” syndrome is the tear film tearing time which makes it possible to provide information about the quality of the tear fluid. In that case for example the tear film is dyed with fluorescein and the patient is then asked to keep the eyes open as long as possible without a blink reflex. A slit lamp is then used to establish when the tear film tears open for the first time. If the period of time is less than 10 seconds, there is the suspicion of the “dry eye” syndrome.

dry eyes = assay: subjective feeling of patients in treatment of dry eyes; type: in vivo; conditions: 0.1% by weight in the composition
Source text: Aqueous sodium hyaluronate solutions are fluids with non-Newtonian flow properties. By virtue of that physical property, aqueous sodium hyaluronate solutions are excellently well suited as slip and lubricating agents with a good cling effect and a prolonged residence time on the conjunctival and corneal epithelia, without adversely affecting visual efficiency.

[3] = tested on: cornea epithelium cells of rabbits; assay: epithelium cell migration; type: cell-based; conditions: 0.1% by weight solution

For heparin, the “treatment of allergically caused conjunctival inflammation” value [1] is given as “effective” and the “degranulation, caused by antigens, of mast cells” value (mast cells) is given as “inhibits degranulation”.
For hyaluronic acid, the “prolonging the tear film tearing time” value [2] was “highly effective”.
With sodium hyaluronate the “subjective feeling of the patients” value (dry eyes) was “considerably improves” and the epithelium cell migration [3] was “increased epithelium cell migration”.
